Experimental data: PubChem BioAssay (NCI)
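Where inhibition never reached the appropriate level, the endpoint shown equals the highest concentration tested. Otherwise, values were interpolated linearly from a five-concentration, 48-hour dose response in 96-well plates. The concentration for full growth arrest is given as TGI.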

Legend:
Assay in all cases: NCI anticancer screen, dose series, 48 h
SN12C renal = tested on: SN12C renal
RXF 393 renal = tested on: RXF 393 renal
DU-145 prostate = tested on: DU-145 prostate
PC-3 prostate = tested on: PC-3 prostate
UACC-62 melanoma = tested on: UACC-62 melanoma
LOX IMVI melanoma = tested on: LOX IMVI melanoma
HCT-15 colon = tested on: HCT-15 colon
IGROV1 ovarian = tested on: IGROV1 ovarian
OVCAR-4 ovarian = tested on: OVCAR-4 ovarian
RPMI-8226 leukemia = tested on: RPMI-8226 leukemia
SNB-19 CNS = tested on: SNB-19 CNS
ACHN renal = tested on: ACHN renal
HL-60(TB) leukemia = tested on: HL-60(TB) leukemia
SK-MEL-5 melanoma = tested on: SK-MEL-5 melanoma
CAKI-1 renal = tested on: CAKI-1 renal
786-0 renal = tested on: 786-0 renal
OVCAR-5 ovarian = tested on: OVCAR-5 ovarian

SMILES | TGI (SN12C renal) [µM] | TGI (RXF 393 renal) [µM] | TGI (DU-145 prostate) [µM] | TGI (PC-3 prostate) [µM] | TGI (UACC-62 melanoma) [µM] | TGI (LOX IMVI melanoma) [µM] | TGI (HCT-15 colon) [µM] | TGI (IGROV1 ovarian) [µM] | TGI (OVCAR-4 ovarian) [µM] | TGI (RPMI-8226 leukemia) [µM] | TGI (SNB-19 CNS) [µM] | TGI (ACHN renal) [µM] | TGI (HL-60(TB) leukemia) [µM] | TGI (SK-MEL-5 melanoma) [µM] | TGI (CAKI-1 renal) [µM] | TGI (786-0 renal) [µM] | TGI (OVCAR-5 ovarian) [µM]
C[N+](C)(C)CC(=O)N/N=C(\C(=O)NC1=C(Cl)C(=O)c2ccccc2C1=O)C(C#N)c1nc(-c2ccc([N+](=O)[O-])cc2)cs1 (centres undefined) | 28.2 | 30.2 | 14.1 | 56.8 | 9.27 | 9.48 | 18.8 | 18.4 | 23.3 | 47 | 39.8 | 26 | 47.4 | 2.7 | 48.6 | 29.1 | 26.3
COc1cccc(Nc2nc(N)nc(N)c2N)c1 | 37.8 | > 100 | > 100 | > 100 | > 100 | 40.2 | > 100 | > 100 | > 100 | 68.3 | > 100 | > 100 | > 100 | 88.2 | 58.3 | > 100 | > 100
Cc1ccnc2[nH]c(-c3ccc(F)cc3)cc(=O)c12 | > 100 | > 100 | > 100 | > 100 | > 100 | > 100 | > 100 | > 100 | > 100 | > 100 | > 100 | > 100 | 38.5 | > 100 | > 100 | > 100 | > 100
CC(=O)OCC1OC(O[C@@H]2C[C@H]3C(C)(C)[C@@H](OC(C)=O)CC[C@]3(C)[C@H]3CC[C@]45C[C@]4(CC[C@H]5[C@@H](C)C[C@@H](O)[C@H](O)C(C)(C)F)[C@@]32C)C(O)C(O)C1O (some centres undefined) | 3.23 | > 100 | > 100 | 91.5 | > 100 | 4.33 | 5.94 | 4.45 | > 100 | 4.24 | 3.1 | > 100 | 2.75 | 3.2 | > 100 | 3.24 | 2.81
CSc1nc(C)c(CCOC(C)=O)c(Cl)n1 | > 100 | > 100 | > 100 | > 100 | > 100 | > 100 | > 100 | > 100 | > 100 | > 100 | > 100 | > 100 | > 100 | > 100 | > 100 | > 100 | > 100
O=S1(=O)OCCOS(=O)(=O)C1Cc1cccc2ccccc12 | 62.2 | 12 | 31.1 | > 100 | 57.2 | 55.4 | 87.1 | 28.6 | 47 | 85.3 | 87.3 | 99.6 | 29.9 | 28.2 | > 100 | 54.8 | 60.9
CSc1nc2c(c(N3CCOCC3)n1)C(O)n1c(nc3ccccc31)S2 (centres undefined) | > 100 | > 100 | > 100 | > 100 | > 100 | > 100 | > 100 | > 100 | > 100 | > 100 | > 100 | > 100 | > 100 | 8.41 | > 100 | > 100 | > 100
COc1cc2c(cc1OC)C(=O)C1(C2)[C@H](c2ccccc2)C2C(=O)c3cc(OC)c(OC)cc3C2[C@H]1c1ccccc1 (some centres undefined) | > 100 | > 100 | > 100 | > 100 | > 100 | > 100 | > 100 | > 100 | > 100 | > 100 | > 100 | > 100 | > 100 | > 100 | 0.648 | > 100 | > 100
CC(C)Oc1cccc(N2C(=NCCc3c[nH]c4ccccc34)Nc3ccncc3S2(=O)=O)c1 | > 100 | 44.9 | > 100 | > 100 | > 100 | > 100 | > 100 | > 100 | > 100 | > 100 | > 100 | > 100 | 65.4 | > 100 | > 100 | 5.35 | > 100
N=CN=CC(=S)O[C@@H]1C(=O)N2CCC[C@@]23CCCC[C@@H]13 | > 12.5 | > 12.5 | > 12.5 | > 12.5 | > 12.5 | > 12.5 | > 12.5 | > 12.5 | > 12.5 | > 12.5 | > 12.5 | > 12.5 | > 12.5 | > 12.5 | > 12.5 | > 12.5 | > 12.5
C[N+](C)(C)c1cc2c(nn1)Nc1ccccc1S2 | > 100 | > 100 | > 100 | 47.9 | 36.9 | 43.8 | > 100 | 81.2 | 70.1 | 36 | > 100 | 69.6 | 74 | 29.9 | > 100 | > 100 | 58.2
CC1(c2ccc(Cl)s2)CC(c2ccc(Cl)s2)=C(C#N)C(=C(C#N)C#N)N1 (centres undefined) | 45.7 | 33.7 | 30.6 | 33.5 | 30.7 | 44.3 | 35.4 | 35.3 | 33.2 | > 100 | 44.2 | 31.4 | 40.1 | 29.5 | 34.8 | 40.6 | 35.8
CCS(=O)(=O)CCn1c(=O)c2c(ncn2C)n(C)c1=O | > 100 | > 100 | > 100 | > 100 | > 100 | > 100 | > 100 | > 100 | > 100 | > 100 | > 100 | > 100 | > 100 | > 100 | > 100 | > 100 | > 100
O=c1cc(N=Nc2ccc(Cl)c(Cl)c2)[nH]c(=O)[nH]1 | 4.79 | 3.17 | 9.19 | 13.6 | 4.61 | 3.36 | 3.31 | 4.31 | 8.08 | 5.6 | 26.6 | 2.98 | 0.941 | 10.2 | 5.56 | 2.86 | 11.2
O=C(NC(Cc1cnc[nH]1)C(=O)N1CCCC1)C1CCCC1 (centres undefined) | > 100 | > 100 | > 100 | > 100 | > 100 | > 100 | > 100 | > 100 | > 100 | > 100 | > 100 | > 100 | > 100 | > 100 | > 100 | > 100 | > 100
O=S(=O)(SC1=NCCN1)c1cccc2ccccc12 | 48.1 | 71.8 | > 100 | > 100 | > 100 | > 100 | > 100 | 89.9 | > 100 | 66.6 | 83.7 | 70.5 | > 10 | 43 | 59.9 | 74.9 | 93.5
O=C1NC(N2CCCCC2)=N/C1=C\c1ccc(Cl)cc1 | > 100 | > 100 | > 100 | > 100 | > 100 | > 100 | > 100 | > 100 | > 100 | > 100 | > 100 | > 100 | > 100 | > 100 | > 100 | 79.9 | > 100
CN(C)CCNC(=O)Cn1cnc2cccc([N+](=O)[O-])c2c1=O | > 100 | > 100 | > 100 | > 100 | > 100 | > 100 | > 100 | > 100 | > 100 | > 100 | > 100 | > 100 | > 100 | > 100 | > 100 | > 100 | > 100
C#Cc1cc(Br)c(OC(=O)C(C)(C)C)c(-c2cc(C#C)cc(Br)c2OC(=O)C(C)(C)C)c1 | > 100 | 46.7 | > 100 | > 100 | > 100 | 49.1 | > 100 | > 100 | > 100 | 46.4 | > 100 | 73.8 | 30.3 | > 100 | > 100 | > 100 | 66
O=C(CCc1ccccc1)n1cccc1CO | > 100 | > 100 | > 100 | > 100 | > 100 | > 100 | > 100 | > 100 | > 100 | > 100 | > 100 | > 100 | > 100 | > 100 | > 100 | > 100 | > 100
COc1ccc(NC(C)=O)c(C(O)CCNC(C)=O)c1 (centres undefined) | > 100 | > 100 | > 100 | > 100 | > 100 | > 100 | > 100 | > 100 | > 100 | > 100 | > 100 | > 100 | > 100 | > 100 | > 100 | > 100 | > 100
O=C(N/N=C/c1ccc([N+](=O)[O-])cc1)Nc1ccc(Br)cc1 | > 100 | > 100 | > 100 | > 100 | > 100 | > 100 | > 100 | > 100 | > 100 | > 100 | > 100 | > 100 | > 100 | > 100 | > 100 | > 100 | > 100
